Experimental data: patent US20220402916A1, “SMALL MOLECULE INHIBITORS OF KRAS G12C MUTANT” (Merck Sharp & Dohme Corp., priority 2019, published 2022)

Target: T1, Biotinylated KRAS G12C protein (Homo sapiens, UniProt P01116, C118S/C51S/C80L/G12C)
T1 construct: 183 amino acids; biotin on K10
Experiment: SOS-catalyzed nucleotide exchange assay
Format: biochemical
Conditions: for IC50: apparent potency, preincubation time of 60 minutes prior to addition of SOS; for inhibition at 10 µM: 10,000 nM, 60 minutes of preincubation prior to addition of SOS
Description: Compounds are added to this complex, and then after 60 minute incubation time the mixture is treated with recombinant SOS protein and unlabeled GTP. Small molecule inhibitors stabilize the Bodipy-GDP complex whereas the untreated protein rapidly exchanges Bodipy-GDP for unlabeled GTP resulting in reduced TR-FRET signal. […] This mixture is then further diluted to 90 nM in an assay buffer (20 mM HEPES, 150 mM sodium chloride, 10 mM magnesium chloride, and 0.005% Tween) containing 15 nM of Terbium-Streptavidin (Invitrogen, catalog #PV3577) and 900 nM of Bodipy-GDP and incubated at room temperature for six hours. […] Each test compound (10 mM stock in DMSO) is diluted in DMSO to make a 10-point, 3-fold dilution series in a 384-well low dead volume microplate (Labcyte, catalog #LP-0200). Once titrations are made, 10 nL of the diluted compounds is acoustically dispensed into a 384-well assay plate (Corning, catalog #3820) using an Echo 550 (Labcyte). […] Each well then receives 3 μL of 240 nM recombinant human SOS protein and 9 mM GTP (Sigma, G8877) in assay buffer and is incubated at room temperature for 60 minutes. The time-resolved fluorescence resonance energy transfer signal for the assay plate is measured on an Envision (PerkinElmer) plate reader: Excitation filter=340 nm; emission1=495 nm; emission2=520 nm; dichroic mirror=D400/D505; delay time=100 μs. The signal of each well is determined as the ratio of the emission at 520 nm to that at 495 nm. […] The apparent effect as a function of compound concentration is fit to a four parameter logistic equation.

T1 sequence (P01116 with tags, fused parts or gaps isoform P01116-2 G12C/C51S/C80L/C118S): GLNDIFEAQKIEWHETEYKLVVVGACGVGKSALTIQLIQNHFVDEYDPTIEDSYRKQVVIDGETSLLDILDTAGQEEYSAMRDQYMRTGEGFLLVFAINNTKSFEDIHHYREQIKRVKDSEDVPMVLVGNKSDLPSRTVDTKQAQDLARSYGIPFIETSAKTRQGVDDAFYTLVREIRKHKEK

SMILES | IC50 [nM] | inhibition at 10 µM [%]
C=CC(=O)N1CCN(c2cc(C(=O)NCC(C)N(C)C)nc3c2CCN(c2cccc4ccccc24)C3)CC1 (racemic) [Compound 5, rac-4-(4-acryloylpiperazin-1-yl)-N-(2-(dimethylamino)propyl)-7-(naphthalen-1-yl)-5,6,7,8-tetrahydro-1,7-naphthyridine-2-carboxamide] | 6020 | 
C=CC(=O)N1CCN(c2cc(C(=O)NC(C)CN(C)C)nc3c2CCN(c2cccc4ccccc24)C3)CC1 (racemic) [Compound 6, rac-4-(4-acryloylpiperazin-1-yl)-N-(1-(dimethylamino)propan-2-yl)-7-(naphthalen-1-yl)-5,6,7,8-tetrahydro-1,7-naphthyridine-2-carboxamide] | 1690 | 
C=CC(=O)N1CCN(c2cc(C(=O)N[C@@H]3CCC[C@H]3N(C)C)nc3c2CCN(c2cccc4ccccc24)C3)CC1 (racemic) [Compound 7, rac-4-(4-acryloylpiperazin-1-yl)-N-(trans-2-(dimethylamino)cyclo-pentyl)-7-(naphthalen-1-yl)-5,6,7,8-tetrahydro-1,7-naphthyridine-2-carboxamide] | 1590 | 
C=CC(=O)N1CCN(c2cc(C(=O)NC(CO)CN(C)C)nc3c2CCN(c2cccc4cccc(C)c24)C3)CC1 (racemic) [Compound 16, rac-4-(4-acryloylpiperazin-1-yl)-N-(1-(dimethylamino)-3-hydroxypropan-2-yl)-7-(8-methylnaphthalen-1-yl)-5,6,7,8-tetrahydro-1,7-naphthyridine-2-carboxamide] | 962 | 
C=CC(=O)N1CCN(c2cc(C(=O)NC(CN(C)C)C(C)C)nc3c2CCN(c2cccc4cccc(C)c24)C3)CC1 (racemic) [Compound 18, rac-4-(4-acryloylpiperazin-1-yl)-N-(1-(dimethylamino)-3-methylbutan-2-yl)-7-(8-methylnaphthalen-1-yl)-5,6,7,8-tetrahydro-1,7-naphthyridine-2-carboxamide] | 145 | 
C=CC(=O)N1CCN(c2cc(C(=O)NC(C)CN(CC)CC)nc3c2CCN(c2cccc4cccc(C)c24)C3)CC1 (racemic) [Compound 19, rac-4-(4-acryloylpiperazin-1-yl)-N-(1-(diethylamino)propan-2-yl)-7-(8-methylnaphthalen-1-yl)-5,6,7,8-tetrahydro-1,7-naphthyridine-2-carboxamide] | 3740 | 
C=CC(=O)N1CCN(c2cc(C(=O)NC(CC(C)C)CN(C)C)nc3c2CCN(c2cccc4cccc(C)c24)C3)CC1 (racemic) [Compound 20, rac-4-(4-acryloylpiperazin-1-yl)-N-(1-(dimethylamino)-4-methylpentan-2-yl)-7-(8-methylnaphthalen-1-yl)-5,6,7,8-tetrahydro-1,7-naphthyridine-2-carboxamide] |  | 30
C=CC(=O)N1CCN(c2cc(C(=O)NC(C)CCN(C)C)nc3c2CCN(c2cccc4cccc(C)c24)C3)CC1 (racemic) [Compound 21, rac-4-(4-acryloylpiperazin-1-yl)-N-(4-(dimethylamino)butan-2-yl)-7-(8-methylnaphthalen-1-yl)-5,6,7,8-tetrahydro-1,7-naphthyridine-2-carboxamide] | 3180 | 
C=CC(=O)N1CCN(c2cc(C(=O)N[C@@H]3COC[C@@H]3N3CCOCC3)nc3c2CCN(c2cccc4cccc(C)c24)C3)CC1 (racemic) [Compound 27, rac-4-(4-acryloylpiperazin-1-yl)-7-(8-methylnaphthalen-1-yl)-N-(cis-4-morpholinotetrahydrofuran-3-yl)-5,6,7,8-tetrahydro-1,7-naphthyridine-2-carboxamide] |  | 29
C=CC(=O)N1CCN(c2cc(C(=O)N[C@H]3COC[C@H]3N)nc3c2CCN(c2cccc4cccc(C)c24)C3)CC1 (racemic) [Compound 28, rac-4-(4-acryloylpiperazin-1-yl)-N-(cis-4-aminotetrahydrofuran-3-yl)-7-(8-methylnaphthalen-1-yl)-5,6,7,8-tetrahydro-1,7-naphthyridine-2-carboxamide] | 7320 | 
C=CC(=O)N1CCN(c2cc(C(=O)N[C@@H]3CCC[C@H]3N(C)C)nc3c2CCN(c2cccc4cccc(C)c24)C3)CC1 (racemic) [Compound 29, rac-4-(4-acryloylpiperazin-1-yl)-N-(trans-2-(dimethylamino)cyclopentyl)-7-(8-methylnaphthalen-1-yl)-5,6,7,8-tetrahydro-1,7-naphthyridine-2-carboxamide] | 259 | 
C=CC(=O)N1CCN(c2cc(C(=O)N[C@H]3COC[C@@H]3N(C)C)nc3c2CCN(c2cccc4cccc(C)c24)C3)CC1 (racemic) [Compound 32, rac-4-(4-acryloylpiperazin-1-yl)-N-(trans-4-(dimethylamino)tetrahydro-furan-3-yl)-7-(8-methylnaphthalen-1-yl)-5,6,7,8-tetrahydro-1,7-naphthyridine-2-carboxamide] | 4470 | 
C=CC(=O)N1CCN(c2cc(C(=O)N[C@H]3COC[C@@H]3N3CCN(C)CC3)nc3c2CCN(c2cccc4cccc(C)c24)C3)CC1 (racemic) [Compound 33, rac-4-(4-acryloylpiperazin-1-yl)-7-(8-methylnaphthalen-1-yl)-N-(trans-4-(4-methylpiperazin-1-yl)tetrahydrofuran-3-yl)-5,6,7,8-tetrahydro-1,7-naphthyridine-2-carboxamide] | 6650 | 
C=CC(=O)N1CCN(c2cc(C(=O)N[C@H]3CCC[C@@H]3N3CCOCC3)nc3c2CCN(c2cccc4cccc(C)c24)C3)CC1 (racemic) [Compound 34, rac-4-(4-acryloylpiperazin-1-yl)-7-(8-methylnaphthalen-1-yl)-N-(trans-2-morpholinocyclopentyl)-5,6,7,8-tetrahydro-1,7-naphthyridine-2-carboxamide] | 3570 | 
C=CC(=O)N1CCN(c2cc(C(=O)N[C@H]3COC[C@@H]3N3CCOCC3)nc3c2CCN(c2cccc4cccc(C)c24)C3)CC1 (racemic) [Compound 35, rac-4-(4-acryloylpiperazin-1-yl)-7-(8-methylnaphthalen-1-yl)-N-(trans-4-morpholinotetrahydrofuran-3-yl)-5,6,7,8-tetrahydro-1,7-naphthyridine-2-carboxamide] |  | 39
C=CC(=O)N1CCN(c2cc(C(=O)N[C@H]3COC[C@@H]3N)nc3c2CCN(c2cccc4cccc(C)c24)C3)CC1 (racemic) [Compound 36, rac-4-(4-acryloylpiperazin-1-yl)-N-(trans-4-aminotetrahydrofuran-3-yl)-7-(8-methylnaphthalen-1-yl)-5,6,7,8-tetrahydro-1,7-naphthyridine-2-carboxamide] | 1520 | 
C=CC(=O)N1CCN(c2cc(C(=O)N[C@H]3CC[C@@H]3N)nc3c2CCN(c2cccc4cccc(C)c24)C3)CC1 (racemic) [Compound 37, rac-4-(4-acryloylpiperazin-1-yl)-N-(trans-2-aminocyclobutyl)-7-(8-methylnaphthalen-1-yl)-5,6,7,8-tetrahydro-1,7-naphthyridine-2-carboxamide] | 468 | 
C=CC(=O)N1CCN(c2cc(C(=O)N[C@@H]3C[C@@H]3N)nc3c2CCN(c2cccc4cccc(C)c24)C3)CC1 (racemic) [Compound 38, rac-4-(4-acryloylpiperazin-1-yl)-N-(cis-2-aminocyclopropyl)-7-(8-methylnaphthalen-1-yl)-5,6,7,8-tetrahydro-1,7-naphthyridine-2-carboxamide] | 4770 | 
C=CC(=O)N1CCN(c2cc(C(=O)NC3CCCC(N(C)C)C3)nc3c2CCN(c2cccc4cccc(C)c24)C3)CC1 (racemic) [Compound 40, rac-(cis,trans)-4-(4-acryloylpiperazin-1-yl)-N-(3-(dimethylamino)cyclohexyl)-7-(8-methylnaphthalen-1-yl)-5,6,7,8-tetrahydro-1,7-naphthyridine-2-carboxamide] | 3540 | 
C=CC(=O)N1CCN(c2cc(C(=O)N3CCCC3CN3CCCCC3)nc3c2CCN(c2cccc4cccc(C)c24)C3)CC1 (racemic) [Compound 44, rac-1-(4-(7-(8-methylnaphthalen-1-yl)-2-(2-(piperidin-1-ylmethyl)pyrrolidine-1-carbonyl)-5,6,7,8-tetrahydro-1,7-naphthyridin-4-yl)piperazin-1-yl)prop-2-en-1-one] | 7870 | 
C=CC(=O)N1CCN(c2cc(C(=O)N3CCCC3CN3CCCCCC3)nc3c2CCN(c2cccc4cccc(C)c24)C3)CC1 (racemic) [Compound 45, rac-1-(4-(2-(2-(azepan-1-ylmethyl)pyrrolidine-1-carbonyl)-7-(8-methylnaphthalen-1-yl)-5,6,7,8-tetrahydro-1,7-naphthyridin-4-yl)piperazin-1-yl)prop-2-en-1-one] | 5350 | 
C=CC(=O)N1CCN(c2cc(C(=O)N3CCCCC3CN3CCCC3)nc3c2CCN(c2cccc4cccc(C)c24)C3)CC1 (racemic) [Compound 46, rac-1-(4-(7-(8-methylnaphthalen-1-yl)-2-(2-(pyrrolidin-1-ylmethyl)piperidine-1-carbonyl)-5,6,7,8-tetrahydro-1,7-naphthyridin-4-yl)piperazin-1-yl)prop-2-en-1-one] | 8880 | 
